Measurements as given in ChEMBL document CHEMBL3046099, “Effect of reduced risk pesticides on greenhouse vegetable arthropod biological control agents” (2011).

Columns and labels:
Eretmocerus eremicus [1] = assay: Toxicity in Eretmocerus eremicus infested cucumber leaves assessed as mortality at recommended rate after 15 days under green house condition (reference value: 30%); format: functional, organism-based
Eretmocerus eremicus [2] = assay: Toxicity in Eretmocerus eremicus infested green bean leaves assessed as mortality at 2 times of recommended rate at 48 hr by leaf dip method (reference value: 10%); format: functional
Amblyseius swirskii [3] = assay: Toxicity in Typhlodromips swirskii infested green bean leaves assessed as mortality at 2 times recommended rate at 48 hr by leaf dip method (reference value: 10%); format: functional
Orius insidiosus [4] = assay: Toxicity in Orius insidiosus infested green bean leaves assessed as mortality at recommended rate at 48 hr by leaf dip method (reference value: 20%); format: functional
Amblyseius swirskii [5] = assay: Toxicity in Typhlodromips swirskii infested green bean leaves assessed as mortality at recommended rate at 48 hr by leaf dip method (reference value: 10%); format: functional
Eretmocerus eremicus [6] = assay: Toxicity in Eretmocerus eremicus infested green bean leaves assessed as mortality at recommended rate at 48 hr by leaf dip method (reference value: 10%); format: functional
Orius insidiosus [7] = assay: Toxicity in Orius insidiosus infested green bean leaves assessed as mortality at 2 times recommended rate at 48 hr by leaf dip method (reference value: 20%); format: functional

Compound	mortality (Eretmocerus eremicus [1])	mortality (Eretmocerus eremicus [2])	mortality (Amblyseius swirskii [3])	mortality (Orius insidiosus [4])	mortality (Amblyseius swirskii [5])	mortality (Eretmocerus eremicus [6])	mortality (Orius insidiosus [7])
METAFLUMIZONE	4.4%	0%	8.8%	69%	14.5%	0%	–
CCCCC(C#N)(Cn1cncn1)c1ccc(Cl)cc1 (stereo not given) [MYCLOBUTANIL]	–	5.3%	17%	–	7.5%	5%	–
O=C([O-])O.[K+] [POTASSIUM BICARBONATE]	–	2.5%	8.8%	–	19.8%	2.5%	–
CNC(=O)c1cc(Cl)cc(C)c1NC(=O)c1cc(Br)nn1-c1ncccc1Cl [CHLORANTRANILIPROLE]	–	0%	14.3%	8%	15.8%	0%	16%
